According to ChEMBL document CHEMBL5052856, “Inhibitors of apol1 and methods of using same” (2021):

Columns and labels:
[1] = system: Trypanosoma brucei brucei; experiment: Antitrypanosomal activity against Trypanosoma brucei brucei assessed as trypanosome lysis using recombinant APOL1 protein G1 variant and measured by Alamar blue based fluoresence assay; assay type: functional, organism-based
[2] = molecular target: Apolipoprotein L1 (Homo sapiens, UniProt O14791); experiment: Inhibition of APOL1 G1 variant in human HEK293-T-REx cells measured by Thallium assay; assay type: cell-based

Structure (SMILES)	IC50 [1] [nM]	IC50 [2] [nM]
C[C@H](O)[C@@H](CO)NC(=O)[C@H]1C[C@H](c2c(-c3ccc(F)cc3)[nH]c3c(F)cc(F)cc32)C1	< 250	< 250
Cn1cnc(CNC(=O)[C@H]2C[C@H](c3c(-c4ccc(F)cc4)[nH]c4c(F)cc(F)cc43)C2)c1	< 250	< 250
COCC1(NC(=O)[C@H]2C[C@H](c3c(-c4ccc(F)cc4)[nH]c4c(F)cc(F)cc43)C2)CC1	< 250	< 250
O=C(NCCO)[C@H]1C[C@H](c2c(-c3ccc(F)cc3)[nH]c3c(F)cc(F)cc32)C1	< 250	< 250
CC(C)C(CO)NC(=O)[C@H]1C[C@H](c2c(-c3ccc(F)cc3)[nH]c3c(F)cc(F)cc32)C1 (some centres not stated)	250	> 1000
CC(C)(CO)NC(=O)[C@H]1C[C@H](c2c(-c3ccc(F)cc3)[nH]c3c(F)cc(F)cc32)C1	250	< 250
CC(C)N1CCN(C(=O)[C@H]2C[C@H](c3c(-c4ccc(F)cc4)[nH]c4c(F)cc(F)cc43)C2)CC1=O	> 1000	> 1000
O=C(NCC(F)(F)F)[C@H]1C[C@H](c2c(-c3ccc(F)cc3)[nH]c3c(F)cc(F)cc32)C1	> 1000	0.25
COC1CC1NC(=O)[C@H]1C[C@H](c2c(-c3ccc(F)cc3)[nH]c3c(F)cc(F)cc32)C1 (some centres not stated)	> 1000	> 1000
Cc1ccn(CCNC(=O)[C@H]2C[C@H](c3c(-c4ccc(F)cc4)[nH]c4c(F)cc(F)cc43)C2)n1	250	> 1000
O=C(NCC1CC(F)(F)C1)[C@H]1C[C@H](c2c(-c3ccc(F)cc3)[nH]c3c(F)cc(F)cc32)C1	> 1000	> 1000
O=C(NC1CCOC1)[C@H]1C[C@H](c2c(-c3ccc(F)cc3)[nH]c3c(F)cc(F)cc32)C1 (some centres not stated)	250	> 1000
O=C1CC(NC(=O)[C@H]2C[C@H](c3c(-c4ccc(F)cc4)[nH]c4c(F)cc(F)cc43)C2)CN1 (some centres not stated)	> 1000	> 1000
O=C(NC(CO)CF)[C@H]1C[C@H](c2c(-c3ccc(F)cc3)[nH]c3c(F)cc(F)cc32)C1 (some centres not stated)	< 250	< 250
COCCNC(=O)[C@H]1C[C@H](c2c(-c3ccc(F)cc3)[nH]c3c(F)cc(F)cc32)C1	250	> 1000
O=C(N[C@@H]1CCOC1)[C@H]1C[C@H](c2c(-c3ccc(F)cc3)[nH]c3c(F)cc(F)cc32)C1	250	0.25
CC(N)(C(=O)NC(=O)[C@H]1C[C@H](c2c(-c3ccc(F)cc3)[nH]c3c(F)cc(F)cc32)C1)C(F)(F)F (some centres not stated)	250	> 1000
O=C(NCCn1cncn1)[C@H]1C[C@H](c2c(-c3ccc(F)cc3)[nH]c3c(F)cc(F)cc32)C1	< 250	< 250
CN(CCO)C(=O)[C@H]1C[C@H](c2c(-c3ccc(F)cc3)[nH]c3c(F)cc(F)cc32)C1	< 250	< 250
O=C([C@H]1C[C@H](c2c(-c3ccc(F)cc3)[nH]c3c(F)cc(F)cc32)C1)N(CCO)C1CC1	250	< 250
COCC1(CNC(=O)[C@H]2C[C@H](c3c(-c4ccc(F)cc4)[nH]c4c(F)cc(F)cc43)C2)CC1	> 1000	> 1000
CC(CO)CNC(=O)[C@H]1C[C@H](c2c(-c3ccc(F)cc3)[nH]c3c(F)cc(F)cc32)C1 (some centres not stated)	250	0.25

Structure (SMILES)	IC50 [1] [nM]	IC50 [2] [nM]
Cn1ccc(CNC(=O)[C@H]2C[C@H](c3c(-c4ccc(F)cc4)[nH]c4c(F)cc(F)cc43)C2)n1	< 250	0.25
O=C(CNC(=O)[C@H]1C[C@H](c2c(-c3ccc(F)cc3)[nH]c3c(F)cc(F)cc32)C1)NC1CC1	> 1000	> 1000
O=C(NCCn1cnnc1)[C@H]1C[C@H](c2c(-c3ccc(F)cc3)[nH]c3c(F)cc(F)cc32)C1	> 1000	> 1000
Cc1cc(CNC(=O)[C@H]2C[C@H](c3c(-c4ccc(F)cc4)[nH]c4c(F)cc(F)cc43)C2)nn1C	250	> 1000
C[C@H](NC(=O)[C@H]1C[C@H](c2c(-c3ccc(F)cc3)[nH]c3c(F)cc(F)cc32)C1)C(=O)N(C)C	250	0.25
NC(=O)C1(NC(=O)[C@H]2C[C@H](c3c(-c4ccc(F)cc4)[nH]c4c(F)cc(F)cc43)C2)CC1	250	0.25
CC(C)CC(NC(=O)[C@H]1C[C@H](c2c(-c3ccc(F)cc3)[nH]c3c(F)cc(F)cc32)C1)C(N)=O (some centres not stated)	> 1000	> 1000
CN(C(=O)[C@H]1C[C@H](c2c(-c3ccc(F)cc3)[nH]c3c(F)cc(F)cc32)C1)C1(CO)CC1	250	0.25
O=C(N[C@H]1C[C@H](O)C1)[C@H]1C[C@H](c2c(-c3ccc(F)cc3)[nH]c3c(F)cc(F)cc32)C1	250	> 1000
O=C([C@H]1C[C@H](c2c(-c3ccc(F)cc3)[nH]c3c(F)cc(F)cc32)C1)N1C[C@@H](CO)OCC12CC2	> 1000	> 1000
O=C(NCC1(O)CCCCC1)[C@H]1C[C@H](c2c(-c3ccc(F)cc3)[nH]c3c(F)cc(F)cc32)C1	> 1000	> 1000
O=C(NCCn1cccc1)[C@H]1C[C@H](c2c(-c3ccc(F)cc3)[nH]c3c(F)cc(F)cc32)C1	250	> 1000
Cc1cc(CNC(=O)[C@H]2C[C@H](c3c(-c4ccc(F)cc4)[nH]c4c(F)cc(F)cc43)C2)on1	250	> 1000
C[C@@H](NC(=O)[C@H]1C[C@H](c2c(-c3ccc(F)cc3)[nH]c3c(F)cc(F)cc32)C1)C(N)=O	> 1000	0.25
CN(C)C(=O)CN(C)C(=O)[C@H]1C[C@H](c2c(-c3ccc(F)cc3)[nH]c3c(F)cc(F)cc32)C1	> 1000	0.25
O=C(NCC1(O)CCCC1)[C@H]1C[C@H](c2c(-c3ccc(F)cc3)[nH]c3c(F)cc(F)cc32)C1	> 1000	> 1000
O=C(NCC1(O)CCC1)[C@H]1C[C@H](c2c(-c3ccc(F)cc3)[nH]c3c(F)cc(F)cc32)C1	> 1000	> 1000
CN1CC(CNC(=O)[C@H]2C[C@H](c3c(-c4ccc(F)cc4)[nH]c4c(F)cc(F)cc43)C2)CC1=O (some centres not stated)	> 1000	> 1000
O=C(NC1(CCO)CC1)[C@H]1C[C@H](c2c(-c3ccc(F)cc3)[nH]c3c(F)cc(F)cc32)C1	250	0.25
O=C1NCC[C@H]1NC(=O)[C@H]1C[C@H](c2c(-c3ccc(F)cc3)[nH]c3c(F)cc(F)cc32)C1	< 250	0.25
CN(CC1(CO)CC1)C(=O)[C@H]1C[C@H](c2c(-c3ccc(F)cc3)[nH]c3c(F)cc(F)cc32)C1	> 1000	> 1000
CCNC(=O)[C@@H]1CCCN1C(=O)[C@H]1C[C@H](c2c(-c3ccc(F)cc3)[nH]c3c(F)cc(F)cc32)C1	> 1000	> 1000

Structure (SMILES)	IC50 [1] [nM]	IC50 [2] [nM]
C[C@@H](NC(=O)[C@H]1C[C@H](c2c(-c3ccc(F)cc3)[nH]c3c(F)cc(F)cc32)C1)C(=O)N(C)C	> 1000	> 1000
CC(C)(NC(=O)[C@H]1C[C@H](c2c(-c3ccc(F)cc3)[nH]c3c(F)cc(F)cc32)C1)C(=O)N1CCOCC1	> 1000	> 1000
C[C@@H](CO)NC(=O)[C@H]1C[C@H](c2c(-c3ccc(F)cc3)[nH]c3c(F)cc(F)cc32)C1	< 250	< 250
O=C(NCC1CCOCC1)[C@H]1C[C@H](c2c(-c3ccc(F)cc3)[nH]c3c(F)cc(F)cc32)C1	> 1000	> 1000
O=C1NCCCC1NC(=O)[C@H]1C[C@H](c2c(-c3ccc(F)cc3)[nH]c3c(F)cc(F)cc32)C1 (some centres not stated)	250	0.25
Cc1cnc(NC(=O)[C@H]2C[C@H](c3c(-c4ccc(F)cc4)[nH]c4c(F)cc(F)cc43)C2)o1	< 250	≥ 250
CC(NC(=O)[C@H]1C[C@H](c2c(-c3ccc(F)cc3)[nH]c3c(F)cc(F)cc32)C1)c1ccnn1C (some centres not stated)	> 1000	> 1000
CCOCC1(CNC(=O)[C@H]2C[C@H](c3c(-c4ccc(F)cc4)[nH]c4c(F)cc(F)cc43)C2)CC1	> 1000	> 1000
Cc1cc(NC(=O)[C@H]2C[C@H](c3c(-c4ccc(F)cc4)[nH]c4c(F)cc(F)cc43)C2)no1	250	0.25
CN1CCN(C(=O)CNC(=O)[C@H]2C[C@H](c3c(-c4ccc(F)cc4)[nH]c4c(F)cc(F)cc43)C2)CC1	> 1000	> 1000
CS(=O)(=O)CCNC(=O)[C@H]1C[C@H](c2c(-c3ccc(F)cc3)[nH]c3c(F)cc(F)cc32)C1	> 1000	< 250
O=C(NC1(CO)CC1)[C@H]1C[C@H](c2c(-c3ccc(F)cc3)[nH]c3c(F)cc(F)cc32)C1	< 250	0.25
Cn1cc(CNC(=O)[C@H]2C[C@H](c3c(-c4ccc(F)cc4)[nH]c4c(F)cc(F)cc43)C2)cn1	250	> 1000
CC(NC(=O)[C@H]1C[C@H](c2c(-c3ccc(F)cc3)[nH]c3c(F)cc(F)cc32)C1)C(N)=O (some centres not stated)	250	0.25
CC1(O)CN(C(=O)[C@H]2C[C@H](c3c(-c4ccc(F)cc4)[nH]c4c(F)cc(F)cc43)C2)C1	250	0.25
CC(NC(=O)[C@H]1C[C@H](c2c(-c3ccc(F)cc3)[nH]c3c(F)cc(F)cc32)C1)c1ccn(C)n1 (some centres not stated)	< 250	0.25
COCc1cc(CNC(=O)[C@H]2C[C@H](c3c(-c4ccc(F)cc4)[nH]c4c(F)cc(F)cc43)C2)n[nH]1	> 1000	> 1000
Cn1ccc(NC(=O)[C@H]2C[C@H](c3c(-c4ccc(F)cc4)[nH]c4c(F)cc(F)cc43)C2)n1	250	> 1000
O=C1CCC(NC(=O)[C@H]2C[C@H](c3c(-c4ccc(F)cc4)[nH]c4c(F)cc(F)cc43)C2)C(=O)N1 (some centres not stated)	250	0.25
CN(CC(N)=O)C(=O)[C@H]1C[C@H](c2c(-c3ccc(F)cc3)[nH]c3c(F)cc(F)cc32)C1	250	0.25
NC(=O)C(CO)NC(=O)[C@H]1C[C@H](c2c(-c3ccc(F)cc3)[nH]c3c(F)cc(F)cc32)C1 (some centres not stated)	< 250	< 250
CC(CO)NC(=O)[C@H]1C[C@H](c2c(-c3ccc(F)cc3)[nH]c3c(F)cc(F)cc32)C1 (some centres not stated)	< 250	< 250
